Laboratory results from ChEMBL document CHEMBL1921788, “Development of melanoma-targeted polymer micelles by conjugation of a melanocortin 1 receptor (MC1R) specific ligand” (J Med Chem, 2011).
Non-standard residues stand in square brackets, D forms with d. Residues, ends and D or L forms follow the SMILES beside them. d2Nal = N[C@H](Cc1ccc2ccccc2c1)C(=O)O; Nle = CCCC[C@H](N)C(=O)O

Tested on: HEK293
Assay: Selectivity ratio of Ki for human MC5 receptor expressed in human HEK293 cells to Ki for human MC1 receptor expressed in human HCT116 cells
Format: cell-based

CCCC[C@H](NC(=O)[C@@H](NC(=O)[C@@H](N)Cc1ccc(O)cc1)C(C)C)C(=O)NCC(=O)N[C@@H](Cc1cnc[nH]1)C(=O)N[C@H](Cc1ccc2ccccc2c1)C(=O)N[C@@H](CCCNC(=N)N)C(=O)N[C@H](Cc1ccccc1)C(=O)N[C@@H](CC(=O)O)C(=O)N[C@@H](CCCNC(=N)N)C(=O)N[C@@H](Cc1ccccc1)C(=O)NCC(N)=O (H-YV[Nle]GH[d2Nal]R[dF]DRFG-NH2)
Ratio Ki: 0.13
